The nature of series [1]: defluorination in vivo in rats.
Series [2] deals with T1, mGluR5 (Rattus norvegicus, UniProt P31424). Nature of the series: PET scan of rat brain, kinetic behavior (ratio of specifically bound to free ligand). The conditions noted are these: tail vein injection. Also noted: from tissue; host or cells: brain of living male Wistar rat (in vivo PET). In kind it is in vivo, Wistar rat. The procedure:
A male Wistar rat (423 g) was injected 23.1 MBq [^18F]PSS232 into a tail vein and PET was acquired from 0 to 90 min post injection. […] Only brain is shown. SUV denotes standardized uptake value.
PET scans analogous to those of Example 3 were recorded after administration of [^18F]PSS232 (Fig. 7, red curves, circles and diamonds), [^11C]ABP688 (Fig. 7, black curves, squares and triangles) and [^18F]FDEGPECO (Fig. 7, blue curves, crosses and crossed bars).
Fig. 9 illustrates the favorable kinetic behavior of PSS232. The ratio of specifically bound PSS232 in caudate putamen (striatum) to free ligand PSS232 (radioactivity in cerebellum is considered to originate from free ligand) becomes constant at about 40 min after injection, thus allowing the estimation of the binding potential (BP). This is an advantage over [^11C]ABP688 where the equilibrium is not reached within 60 min and the short physical half-life of ^11C (20 min) limits the scan duration.

Series [3] can be described thus: defluorination by human S9 fraction of liver homogenate. In kind it is in vitro ADME.
Series [4] can be described thus: defluorination by rat liver microsomes. In kind it is in vitro ADME.
Series [5] can be described thus: defluorination by human liver microsomes. In kind it is in vitro ADME.
The target of series [6] is T1, mGluR5. The conditions noted are these: background, literature; cited from earlier work.
For series [7], the target named is T2, rat mGluR5 (Rattus norvegicus, UniProt P31424).
T2 construct: displacement assay with rat brain membranes and 1.6 nM [^3H]ABP688; from tissue; host or cells: rat brain membranes
Kind of series: displacement assay with rat brain membranes and [^3H]ABP688. In kind it is binding. The conditions noted are these: radioligand of the displacement assay, used at 1.6 nM, rat brain membranes.

The conditions of series [8]: rats; background, literature; cited from earlier work.
In series [9] the target is T1, mGluR5. Nature of the series: ex vivo brain distribution with MTEP blockade (gamma counter). The conditions noted are these: 45 min after injection. More on the design: from tissue; host or cells: rat brain regions after in vivo injection. In kind it is in vivo, Rats. The procedure:
Rats were pre-injected (tail vein) with 10 mg/kg MTEP (a specific mGluR5 antagonist) before [^18F]PSS232 injection (= blockade, see green, right bars in Fig. 10) or they were pre-injected with vehicle (= baseline, see blue, left, bars in Fig. 10).

In series [10] the target is T1, mGluR5. Kind of series: ex vivo brain distribution after MMPEP pre-injection at various doses (receptor occupancy). The conditions noted are these: estimated from fit of MMPEP dose curve; 45 min after injection.
The target of series [11] is T1, mGluR5. Nature of the series: in vitro autoradiography of rat brain slices. In kind it is binding. More on the design: from tissue; host or cells: brain of living animal (in vivo PET, tail vein injection). The conditions noted are these: about 1 nM tracer, 20 µm slices; compared with 100 nM ABP688 (mGluR5 ligand) or JNJ16259685 (mGluR1 ligand). The procedure:
In Fig. 4 two rat brain slices (20 µm) each were incubated with about 1 nM [^18F]PSS232 in the absence of any unlabeled compound (top) or with 100 nM of the specific mGluR5 ligand ABP688 (middle) or of mGluR1 ligand JNJ16259685 (bottom). […] It should be noted that mGluR1 is the receptor with most similar amino acid sequence to mGluR5.

The conditions of series [12]: monkeys; background; cited from earlier work.
The conditions of series [13]: humans; background, relative to rodents and monkeys; cited from earlier work.
For series [14] the following is noted: rodents; background; cited from earlier work.

Like-named read-outs stand apart in the source and are kept apart here. Bounds are passed on as bounds.

T1 sequence (P31424 21-1203): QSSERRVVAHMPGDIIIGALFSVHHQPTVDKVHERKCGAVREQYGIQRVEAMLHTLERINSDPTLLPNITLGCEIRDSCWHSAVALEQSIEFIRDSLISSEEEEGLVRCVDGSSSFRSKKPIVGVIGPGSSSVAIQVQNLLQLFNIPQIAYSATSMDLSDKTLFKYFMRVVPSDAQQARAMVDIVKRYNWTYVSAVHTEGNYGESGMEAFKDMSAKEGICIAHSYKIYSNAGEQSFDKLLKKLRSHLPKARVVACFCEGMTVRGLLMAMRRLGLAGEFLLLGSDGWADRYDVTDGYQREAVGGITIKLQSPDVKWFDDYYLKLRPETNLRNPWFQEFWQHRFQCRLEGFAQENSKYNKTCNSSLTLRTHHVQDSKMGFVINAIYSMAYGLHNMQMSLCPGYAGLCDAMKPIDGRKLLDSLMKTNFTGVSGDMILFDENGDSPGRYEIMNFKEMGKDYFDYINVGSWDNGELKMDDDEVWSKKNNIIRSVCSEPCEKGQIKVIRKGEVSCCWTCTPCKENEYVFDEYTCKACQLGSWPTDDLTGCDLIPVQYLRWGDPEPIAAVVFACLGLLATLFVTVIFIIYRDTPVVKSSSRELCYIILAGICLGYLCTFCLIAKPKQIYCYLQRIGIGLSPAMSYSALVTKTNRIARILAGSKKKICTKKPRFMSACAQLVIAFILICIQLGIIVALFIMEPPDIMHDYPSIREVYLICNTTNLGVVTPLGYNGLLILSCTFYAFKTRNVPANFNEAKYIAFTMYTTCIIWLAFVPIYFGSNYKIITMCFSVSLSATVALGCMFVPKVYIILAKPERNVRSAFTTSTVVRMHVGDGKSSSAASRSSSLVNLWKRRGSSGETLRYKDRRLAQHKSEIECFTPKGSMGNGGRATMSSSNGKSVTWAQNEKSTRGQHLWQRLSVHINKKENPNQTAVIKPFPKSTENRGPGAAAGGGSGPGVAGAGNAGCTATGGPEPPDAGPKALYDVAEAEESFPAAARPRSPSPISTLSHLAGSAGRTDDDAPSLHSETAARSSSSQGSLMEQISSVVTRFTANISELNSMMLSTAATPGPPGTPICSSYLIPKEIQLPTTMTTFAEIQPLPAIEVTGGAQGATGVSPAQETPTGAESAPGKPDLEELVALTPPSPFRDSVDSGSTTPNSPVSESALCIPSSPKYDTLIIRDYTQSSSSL
T2 sequence (P31424 21-1203): as above

Turning to `FCCOCCCO/N=C1/C=C(C#Cc2ccccn2)CCC1` [PSS232, (E)-3-(pyridin-2-ylethynyl)-cyclohex-2-enone O-(3-(2-fluoroethoxy)propyl) oxime], in [1], the defluorination in vivo result is listed as “does not show significant defluorination”. Moreover, in series [2], the “time after injection at which ratio of specifically bound (caudate putamen/striatum) to free ligand (cerebellum) becomes constant (equilibrium)” value is given as “about 40 min”. Besides, the defluorination result in series [3], in [4] and in series [5] was “not significantly defluorinated” throughout.

Regarding `[18F]CCOCCO/N=C1/C=C(C#Cc2ccccn2)CCC1` [[^18F]FDEGPECO, (E)-3-(Pyridin-2-ylethynyl)-cyclohex-2-enone-O-2-(2-^18F-fluoroethoxy)ethyl oxime], in series [6], the “mean residence time at the target site” value is “relatively short”.

Turning to `CON=C1C=C(C#Cc2cccc(C)n2)CCC1` [[^3H]ABP688], in series [7], the dissociation constant Kd (in general, the free concentration of one partner at which half of the binding sites on the other are occupied at equilibrium, for simple one-to-one binding) came out at 1.7 nM.

With `[18F]CCCOCCO/N=C1/C=C(C#Cc2ccccn2)CCC1` [[^18F]PSS223, (E)-3-(pyridin-2-ylethynyl)cyclohex-2-enone O-(2-(3-^18F-fluoropropoxy)ethyl) oxime], the defluorination in vivo entry in series [8] was “rapid defluorination”.

As for `FCCOCCCO/N=C1/C=C(C#Cc2ccccn2)CCC1` [[^18F]PSS232, (E)-3-(pyridin-2-ylethynyl)-cyclohex-2-enone O-(3-(2-fluoroethoxy)propyl) oxime], in series [9] (baseline (vehicle) vs blockade with 10 mg/kg MTEP), the “average specific binding in striatum” value came to 86.6%. Besides, in series [10], the “maximal specific binding in striatum” value was 78.5%. Further, the “accumulation in mGluR5-rich domains of rat brain slices” value in [11] was “high, mGluR5-selective accumulation”.

Consider MTEP, for which the “radioactivity of brain regions after MTEP pre-injection” value in [9] (10 mg/kg MTEP tail vein before [^18F]PSS232) is listed as “all brain regions have similar radioactivity as in cerebellum”.

Turning to `N#Cc1cc(F)cc(C#Cc2csc(C[18F])n2)c1` [[^18F]-SP203], the defluorination entry is recorded as “significant defluorination” in series [12], “to a lesser extent” in [13] and “significant defluorination” in series [14].

With `Cc1cccc(C#CC2=C/C(=N/O[11CH3])CCC2)n1` [[^11C]ABP688, (E)-3-((6-methylpyridin-2-yl)ethynyl)cyclohex-e-enone-O-^11C-methyl oxime], in series [2], the “time after injection at which ratio of specifically bound (caudate putamen/striatum) to free ligand (cerebellum) becomes constant (equilibrium)” value was above 60 min.
